In the PolyMetriX glass transition set:
± gives the standard deviation of the reports.

Compound	glass transition temperature
*CCOCCOCCOCCOCCOC(=O)CCSCCC(=O)O* (repeat unit)	-39.00 °C
*CCC[Si](*)(C)C (repeat unit)	-55.00 °C
*C(F)(F)C1(*)OC(F)(C(F)(F)F)C(F)(C(F)(F)F)O1 (repeat unit)	165.00 °C
*CC(*)c1ccc(COCCC(F)(F)C(F)(F)C(F)(F)C(F)(F)C(F)(F)C(F)(F)F)cc1 (repeat unit)	18.00 °C
*c1ccc(*)c(C(=O)c2ccc(F)cc2)c1 (repeat unit)	194.00 °C
*CC/C=C(/*)CCCCCCCCCC (repeat unit)	-53.00 °C
*c1cccc(N2C(=O)c3ccc(C(c4ccc5c(c4)C(=O)N(c4cccc(N6C(=O)c7ccc(-c8ccc9c(c8)C(=O)N(*)C9=O)cc7C6=O)c4)C5=O)(C(F)(F)F)C(F)(F)F)cc3C2=O)c1 (repeat unit)	308.00 °C
*CCCCCCCCCCSS* (repeat unit)	-65.00 °C
*Oc1ccc(C(=O)Nc2cc(C(c3ccc(C)c(NC(=O)c4ccc(OC(=O)c5cccc(C(*)=O)c5)cc4)c3)(C(F)(F)F)C(F)(F)F)ccc2C)cc1 (repeat unit)	214.00 °C
*Nc1cc(NC(=O)c2cccc(C(*)=O)c2)cc(C(=O)OCCOc2ccc(/C=C/C(=O)c3ccccc3)cc2)c1 (repeat unit)	216.00 °C
*OCCOC(=O)c1cc(/N=N/c2ccc(OCC)cc2)ccc1-c1ccc(/N=N/c2ccc(OCC)cc2)cc1C(=O)OCCOc1nc(-c2ccc(OCCCC)cc2)nc(*)c1-c1ccc(OC)cc1 (repeat unit)	126.00 °C
*c1ccc(-c2ccc(-c3nc4cc(Oc5ccc6nc(-c7ccccc7)c(*)nc6c5)ccc4nc3-c3ccccc3)cc2)cc1 (repeat unit)	410.00 °C
*OC(=O)c1ccc(C2(C)CC(C)(C)c3ccc(C(=O)Oc4ccc5c(c4)Oc4cc(*)ccc4C5(C)C)cc32)cc1 (repeat unit)	297.00 °C
*c1ccc2c(c1)C(=O)N(c1c(C)cc(Cc3cc(C)c(N4C(=O)c5ccc(C(*)(C(F)(F)F)C(F)(F)F)cc5C4=O)c(C)c3)cc1C)C2=O (repeat unit)	307.50 °C
*C(=O)Nc1ccc(Oc2ccc(NC(=O)c3ccc4c(c3)C(=O)N(c3ccc(Oc5ccc(C6(c7ccc(Oc8ccc(N9C(=O)c%10ccc(*)cc%10C9=O)cc8)cc7)CC7CC6C6CCCC76)cc5)cc3)C4=O)cc2)cc1 (repeat unit)	250.00 °C
*OC1CCC(OC(=O)OCCCCCCCOC(*)=O)CC1 (repeat unit)	-5.00 °C
*CC(*)c1ccccc1COCc1ccccc1 (repeat unit)	72.00 °C
*Oc1ccc(NC(=O)c2ccc(NC(=O)c3ccc([Si](C)(C)c4ccc(C(=O)Nc5ccc(C(=O)Nc6ccc(*)cc6)cc5)cc4)cc3)cc2)cc1 (repeat unit)	304.00 °C
*Nc1cc(NC(=O)c2cccc(C(*)=O)c2)cc(C(=O)OCCOC(=O)/C=C/c2ccc(N(C)C)cc2)c1 (repeat unit)	186.00 °C
*Oc1ccc(C(C)(CC)c2ccc(OC(=O)OC3C(C)(C)C(OC(*)=O)C3(C)C)cc2)cc1 (repeat unit)	124.00 °C
*C(=O)Nc1ccc(Oc2cccc(NC(=O)c3ccc4c(c3)C(=O)N(c3ccc(Oc5ccc(C6(c7ccc(Oc8ccc(N9C(=O)c%10ccc(*)cc%10C9=O)cc8)cc7)NC(=O)c7ccccc76)cc5)cc3)C4=O)c2)cc1 (repeat unit)	302.00 °C
*/C=C/C1CC(*)C2C(=O)N(CCCCCCCCCC)C(=O)C12 (repeat unit)	46.00 °C

Compound	glass transition temperature
*Oc1c(Cl)cc(C(c2cc(Cl)c(OC(*)=O)c(Cl)c2)C2CC3CCC2C3)cc1Cl (repeat unit)	270.00 °C
*Oc1ccc(C(C)(C)c2ccc(OC(=O)OCC3CCC(COC(*)=O)CC3)cc2)cc1 (repeat unit)	90.40 °C
*CC(*)(C(=O)OC)c1ccccc1 (repeat unit)	121.00 °C
*Nc1ccc(NC(=O)c2ccc(C(=O)c3ccc(C(*)=O)c(C(=O)O)c3)cc2C(=O)O)cc1 (repeat unit)	317.00 °C
*/C(C)=C(/*)[Si](C)(C)CCCCCC (repeat unit)	200.00 °C
*CC(*)(C)C(=O)OCC1(CC)COC1 (repeat unit)	105.00 °C
*CCCNC(=O)C(OC)C(OC)C(=O)N* (repeat unit)	123.00 °C
*Oc1ccc(OC(=O)c2ccc(C(*)=O)cc2Sc2ccccc2)cc1-c1ccccc1 (repeat unit)	130.00 °C
*c1cc(CCOc2ccc(/N=N/c3ccc(C#N)cc3)cc2)c(*)s1 (repeat unit)	73.00 °C
*c1ccc2c(c1)C(=O)N(c1c(C(C)C)cc(C(c3ccccc3)(c3cc(C(C)C)c(N4C(=O)c5ccc(C(*)(C(F)(F)F)C(F)(F)F)cc5C4=O)c(C(C)C)c3)C(F)(F)F)cc1C(C)C)C2=O (repeat unit)	274.00 °C
*Oc1ccc(S(=O)(=O)c2ccc(Oc3ccc(C(C)(C)c4ccc(*)cc4)cc3)c([N+](=O)[O-])c2)cc1[N+](=O)[O-] (repeat unit)	206.00 °C
*c1cccc(N/C=C/C(=O)c2cccc(C(=O)/C=C/Nc3cccc(S(*)(=O)=O)c3)c2)c1 (repeat unit)	215.00 °C
*c1ccc(Oc2ccc(C(=O)c3cccc(C(=O)c4ccc(Oc5ccc(-c6cc(*)[nH]n6)cc5)cc4)c3)cc2)cc1 (repeat unit)	205.00 °C
*/C=C(\C#N)c1cccc(/C(C#N)=C/c2ccc(/C=C/c3ccc(N(c4ccccc4)c4ccc(N(c5ccccc5)c5ccc(/C=C/c6ccc(*)s6)cc5)cc4)cc3)s2)c1 (repeat unit)	178.00 °C
*c1ccc(Oc2ccc(-c3ccc(Oc4ccc(-c5ncc(*)o5)cc4C(F)(F)F)cc3)cc2)c(C(F)(F)F)c1 (repeat unit)	200.00 °C
*Oc1c(OC)cc(-c2cc(OC)c(OC(=O)c3cccc(C(*)=O)c3)c(OC)c2)cc1OC (repeat unit)	252.00 °C
*CC(*)C(=O)OCc1ccc(C#N)cc1 (repeat unit)	44.00 °C
*O[Si](C)(C)c1cc(OCCOCc2ccccc2)c([Si](*)(C)C)cc1OCCOCc1ccccc1 (repeat unit)	76.00 °C
*Oc1cccc(Oc2cccc(NC(=O)c3cc(Oc4ccc(C(=O)O)c(C(=O)Nc5cccc(*)c5)c4)ccc3C(=O)O)c2)c1C#N (repeat unit)	200.10 °C
*CCN(CCOC(=O)Nc1ccc(C)c(NC(=O)O*)c1)c1ccc(/N=N/c2ccc([N+](=O)[O-])cc2)cc1 (repeat unit)	144.00 °C
*Oc1ccc(C(C#N)(c2ccccc2)c2ccc(OC(*)=O)cc2)cc1 (repeat unit)	138.00 °C

Now from value to compound:

glass transition temperature	Compound
40.00 °C	*CCCCCCCCCCCCOc1ccc(C(C)Cc2ccc(-c3ccc(O*)cc3)cc2)cc1 (repeat unit)
98.00 °C	*CCCCCC(=O)Oc1ccc2ccc(OC(=O)CCCCCn3c(=O)c4cc5c(=O)n(*)c(=O)c5cc4c3=O)cc2c1 (repeat unit)
95.00 °C	*C(=O)c1ccc2c(c1)C(=O)N(c1cc(-c3nc4ccccc4oc3=O)cc(N3C(=O)c4ccc(*)cc4C3=O)c1)C2=O (repeat unit)
317.2 ± 3.2 °C	*C(=O)c1ccc2c(c1)C(=O)N(c1ccc(C)c(N3C(=O)c4ccc(*)cc4C3=O)c1)C2=O (repeat unit)
10.00 °C	*CC(*)(C)C(=O)OCCCCOc1ccc(OC(=O)c2ccc(OCCCCCCCC)cc2)cc1 (repeat unit)
265.50 °C	*C(=O)c1ccc2c(c1)C(=O)N(c1cccc(Cc3ccc(C(=O)c4cccc(N5C(=O)c6ccc(*)cc6C5=O)c4)cc3)c1)C2=O (repeat unit)
119.00 °C	*CCOC(=O)c1ccc2ccc(C(=O)O*)cc2c1 (repeat unit)
2.00 °C	*CC(=O)NCCCCCCNC(=O)COC(=O)CCCCCCCCC(=O)O* (repeat unit)
67.00 °C	*CC(*)C(=O)OCCCCCCCCCCCCOc1ccc(C(=O)Oc2ccc(-c3cccc(OC(=O)c4ccc(OC(=O)c5ccc(OCCCCCCCCCCCC)cc5)cc4)c3)cc2)cc1 (repeat unit)
122.00 °C	*CCCCCCNC(=O)CCC1(CCC(=O)N*)c2ccccc2-c2ccccc21 (repeat unit)
-69.00 °C	*CC(C)(CC)COC(=O)CCCCCCCCC(=O)O* (repeat unit)
347.50 °C	*C(=O)c1ccc2c(c1)C(=O)N(c1ccc(-c3cc(C(C)(C)C)c(Oc4ccc(N5C(=O)c6ccc(*)cc6C5=O)cc4)c(C(C)(C)C)c3)cc1)C2=O (repeat unit)
341.50 °C	*C(=O)c1ccc2c(c1)C(=O)N(c1ccc3c(c1)Cc1cc(N4C(=O)c5ccc(*)cc5C4=O)ccc1-3)C2=O (repeat unit)
292.00 °C	*C(=O)c1ccc2c(c1)C(=O)N(c1cccc(C(O)c3cccc(N4C(=O)c5ccc(*)cc5C4=O)c3)c1)C2=O (repeat unit)
234.00 °C	*CCCCCCCCc1nc2cc(-c3ccc4[nH]c(*)nc4c3)ccc2[nH]1 (repeat unit)
3.00 °C	*OC(=O)CCCCCCCCC(=O)OC1COC2C(*)COC12 (repeat unit)
231.00 °C	*Oc1ccc2cc(Oc3ccc(S(=O)(=O)c4ccc(*)cc4)cc3)ccc2c1 (repeat unit)
163.67 °C	*Oc1c(C)cc(-c2cc(CBr)c(Oc3ccc(C(=O)c4ccc(*)cc4)cc3)c(CBr)c2)cc1CBr (repeat unit)
274.00 °C	*c1ccc(-c2ccc(N3C(=O)c4ccc(Oc5ccc(Oc6ccc7c(c6)C(=O)N(*)C7=O)cc5)cc4C3=O)c(OC)c2)cc1OC (repeat unit)
385.00 °C	*c1c(C)cc(C)c(N2C(=O)c3ccc(-c4ccc5c(c4)C(=O)N(*)C5=O)cc3C2=O)c1C (repeat unit)
126.00 °C	*Oc1ccc(Oc2ccc(OC(=O)c3cc(OCCCCC)cc(C(*)=O)c3)cc2)cc1 (repeat unit)
306.70 °C	*c1ccc(OCC2CCC(COc3ccc(-n4c(=O)c5cc6c(=O)n(*)c(=O)c6cc5c4=O)cc3)CC2)cc1 (repeat unit)
